Assay results: US10434075B2, “FKBP52 specific androgen receptor inhibitor, MJC13, for use in treating breast cancer” (THE BOARD OF REGENTS OF THE UNIVERSITY OF TEXAS SYSTEM, priority 2016, dated 2019)
“Also recorded” adds a separate entry of the source.

How the values were obtained:
AR [1] = details: variety of human prostate cancer cell lines; cited from earlier work
AR [2] = details: binding AR BF3 surface; FKBP52-receptor complex prevented from dissociating; cited from earlier work
[3] = tested on: human prostate cancer cell lines; details: variety of human prostate cancer cell lines; cited from earlier work
ER = test: E2-induced ER chromatin binding / ER recruitment to E2-dependent promoters; type: cell-based; details: FIG. 3
[4] = target: T1, β-catenin interaction with AR (Homo sapiens, UniProt P10275); test: β-catenin interaction with AR; details: MJC13 targeting to the AR BF3 surface; prostate cancer cells
T1 sequence (P10275 1-920): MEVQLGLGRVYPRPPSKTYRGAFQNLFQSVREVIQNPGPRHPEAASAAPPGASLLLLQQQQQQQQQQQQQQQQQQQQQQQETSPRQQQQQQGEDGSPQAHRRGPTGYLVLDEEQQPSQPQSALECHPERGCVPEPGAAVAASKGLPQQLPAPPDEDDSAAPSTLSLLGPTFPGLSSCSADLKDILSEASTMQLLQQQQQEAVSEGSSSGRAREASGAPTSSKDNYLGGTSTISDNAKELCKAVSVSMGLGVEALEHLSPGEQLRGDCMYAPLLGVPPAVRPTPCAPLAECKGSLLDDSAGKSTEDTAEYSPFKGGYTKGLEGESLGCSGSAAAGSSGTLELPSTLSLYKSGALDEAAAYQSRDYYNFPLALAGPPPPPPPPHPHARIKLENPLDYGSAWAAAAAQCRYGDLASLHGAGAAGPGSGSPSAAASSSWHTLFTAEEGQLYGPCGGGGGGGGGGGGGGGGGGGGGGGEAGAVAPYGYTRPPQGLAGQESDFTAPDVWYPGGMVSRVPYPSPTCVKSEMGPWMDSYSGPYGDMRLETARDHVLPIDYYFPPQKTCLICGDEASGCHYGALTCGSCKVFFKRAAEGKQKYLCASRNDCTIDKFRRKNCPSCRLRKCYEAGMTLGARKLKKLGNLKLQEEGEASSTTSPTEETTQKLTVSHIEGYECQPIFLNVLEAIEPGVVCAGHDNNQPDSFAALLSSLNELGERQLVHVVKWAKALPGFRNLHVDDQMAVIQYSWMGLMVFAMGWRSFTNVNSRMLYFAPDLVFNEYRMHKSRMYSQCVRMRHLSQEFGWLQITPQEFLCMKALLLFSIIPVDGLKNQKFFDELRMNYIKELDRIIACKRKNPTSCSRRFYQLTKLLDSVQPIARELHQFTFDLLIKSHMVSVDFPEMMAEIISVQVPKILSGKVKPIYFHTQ

[5] = tested on: prostate cancer xenograft; details: prostate cancer xenograft model, preclinical studies; cited from earlier work
[6] = tested on: MCF-7 breast cancer cells; test: E2-induced proliferation in MCF-7 breast cancer cells; type: cell-based; details: FIG. 1
[7] = tested on: tamoxifen-resistant MCF-7 breast cancer cells; test: Proliferation in tamoxifen-resistant MCF-7 breast cancer cells; type: cell-based; details: no difference in AR expression levels, FIG. 2

O=C(Nc1cccc(Cl)c1Cl)C1CCCCC1 [MJC13]
AR signaling (AR [1]): effectively block AR signaling | AR cellular localisation (AR [2]): retention of AR in the cytoplasm | AR-dependent cancer cell proliferation [3]: effectively block | E2-induced ER chromatin binding (ER): significantly decreases E2-induced ER chromatin binding; also recorded: affects ER recruitment to E2-dependent promoters | β-catenin interaction with AR [4]: abrogates β-catenin interaction with AR | tumor growth [5]: impressive effects on tumor growth | E2-induced proliferation [6]: inhibits E2-induced proliferation; also recorded: effective inhibitor of E2-induced BC cell proliferation | cell proliferation [7]: effectively inhibits cell proliferation
